For data set [1], the system named is HCT116 WT/OxR. The data set is described as follows: MTT viability assay in oxaliplatin-resistant HCT116 WT/OxR cells. It is filed as cell-based, human. The conditions noted are these: 72 h; resistant subline vs parental line. Here is the method: (§1) Cells were seeded (2 × 10^4 cells/well for HCT116, HCT116/OxR, 3 × 10^4 cells/well for HCT116 p53KO, 4 × 10^4 cells/well for MES-OV, SK-OV-3, and their respective CBP resistant counterparts) in 100 μL/well in 96-well plates and allowed to attach for 24 h at 37 °C and 5% CO2. Compounds were first dissolved in DMSO to a 10 mM stock solution and then further diluted in a growth medium (DMSO concentration <1%). After 24 h, cells were treated with 100 μL of different drugs dilutions in triplicates with the final concentrations of 0, 0.01, 0.05, 0.075, 0.1, 0.5, 0.75, 1, 2.5, 5, 7.5, and 10 μM depending on the compound and the cell line.
(Tetrazolium dyes change colour on reduction, which living cells bring about.)

Data set [2] deals with SK-OV-3. Put plainly: Cell death by annexin V/propidium iodide stain (flow cytometry). It is filed as cell-based, human. The settings on record: SK-OV-3, 10 μM, 24 h. On the procedure: (§2) Cells were seeded in a density of (2–4) × 10^5 cells/well in six-well plates and in 1 mL culture medium containing 10% FBS. After 24 h recovery, cells were treated with the indicated compounds and concentrations. Next, the supernatant was collected followed by trypsinization of the cells and centrifugation at 300g for 5 min. In the following protocols, cells were stained with annexin V (AV) and propidium iodide (PI) for cell death analysis, with only PI for cell cycle analysis, or with 10 μg mL^–1 JC-1 for evaluation of the mitochondrial membrane potential as previously described.[54],[55]

Data set [3] in a line: Stability in PBS by LC-ESI(+)-HRMS/MS. It is filed as physicochemical. The settings on record: 80 μM in PBS, monitored 48 h. On the procedure:
For the stability evaluation in PBS, 10 mM solutions of complexes 1, 4, and 7 were first prepared in DMSO. Two microliters of this solution were then added to PBS (250 μL) for a total concentration of 80 μM. Following centrifugation for 10 min at 3000 rpm, the resulting solutions were monitored by LC-ESI(+)-MS and LC-ESI(+)-HRMS for a period of 48 h.

For data set [4], the system named is MES-OV cells. Put plainly: ROS detection by DCF-DA flow cytometry in MES-OV. It is filed as cell-based, human. The conditions noted are these: 24 h. Here is the method:
Cells were seeded 5 × 10^5 cells/mL in six-well plates. After 24 h treatment with the indicated concentration, cells were incubated with 10 μM 2′,7′-dichlorofluorescein diacetate (DCFH-DA, Sigma-Aldrich) in Hank’s balanced salt solution for 1 h at 37 °C. Subsequently, flow cytometry (with BD LSR Fortessa instrument, BD Biosciences, Franklin Lakes, NJ, USA) was performed to measure the median fluorescence signal of 20,000 single cells per sample. FlowJo (BD Biosciences, San Jose, CA, USA) and GraphPad Prism software (GraphPad Software Inc., San Diego, CA, USA) were to analyze the data.
(In general: In flow cytometry, cells or beads pass a laser one at a time.)

Data set [5] concerns the target T1, recombinant rat TrxR (Rattus norvegicus, UniProt O89049).
T1 construct: purchased Cayman Chemical
T1 sequence (O89049 1-499): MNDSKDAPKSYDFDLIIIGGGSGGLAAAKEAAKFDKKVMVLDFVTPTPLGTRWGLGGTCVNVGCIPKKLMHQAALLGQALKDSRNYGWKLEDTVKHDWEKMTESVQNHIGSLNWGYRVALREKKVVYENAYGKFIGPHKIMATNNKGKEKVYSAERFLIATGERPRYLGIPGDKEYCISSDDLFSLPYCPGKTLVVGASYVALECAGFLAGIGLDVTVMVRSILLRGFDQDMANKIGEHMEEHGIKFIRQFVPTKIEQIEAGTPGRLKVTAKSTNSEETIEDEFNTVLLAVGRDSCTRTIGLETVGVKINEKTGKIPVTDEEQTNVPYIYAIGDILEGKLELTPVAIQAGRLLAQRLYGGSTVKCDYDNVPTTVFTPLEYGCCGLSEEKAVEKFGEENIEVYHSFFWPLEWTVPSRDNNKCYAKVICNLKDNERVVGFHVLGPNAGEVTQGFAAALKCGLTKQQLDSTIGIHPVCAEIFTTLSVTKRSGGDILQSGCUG
Put plainly: Inhibition of mammalian TrxR (microplate reader-based DTNB assay). Type of data set: biochemical. The settings on record: cell-free assay. On the procedure:
To determine the inhibition of mammalian TrxR, an established microplate reader-based assay was performed. For this purpose, commercially available recombinant rat TrxR (from Cayman Chemical) was used and diluted with distilled water to achieve a concentration of 0.12 U mL^–1. The compounds were freshly dissolved as stock solutions in DMSO. Aliquots (25 μL) of the enzyme solution and 25 μL of potassium phosphate buffer (pH 7.0) containing the compounds in graded concentrations (1% DMSO) were mixed. Positive controls were composed of 25 μL aliquots of the enzyme solution mixed with 25 μL 1% DMSO in buffer solution (no compounds). The final concentration of DMSO was 0.5% v/v in all samples. The blank solution was the highest used concentration of the compound in 0.5% DMSO in buffer solution (no enzyme). All resulting solutions were incubated with moderate shaking for 75 min at 37 °C in a 96-well plate. […] After proper mixing, the formation of 2-nitro-5-thiobenzoate (5-TNB) was monitored with a microplate reader at 405 nm 10 times in 35 s intervals for about 6 min. The increase in 5-TNB concentration over time followed a linear trend, and the enzymatic activities were calculated as the slopes (increase in absorbance per second) thereof. […] For the absorption measurements in the enzyme assay, a PerkinElmer 2030 Multilabel Reader VICTORTMX4 was used.

The subject of data set [6] is MES-OV/CBP. The data set is described as follows: MTT viability assay in carboplatin-resistant MES-OV/CBP cells. Type of data set: cell-based, human. The settings on record: 72 h; resistant subline vs parental line. On the procedure: as §1
The subject of data set [7] is SK-OV-3/CBP. Put plainly: MTT viability assay in carboplatin-resistant SK-OV-3/CBP cells. It is filed as cell-based, human. The settings on record: 72 h; resistant subline vs parental line. Here is the method:
as §1

The subject of data set [8] is MES-OV cells. Put plainly: Phase-contrast microscopy of cytoplasmic vacuoles. It is filed as cell-based, human. The conditions noted are these: 6 and 24 h treatment. On the procedure:
Cells were seeded 5 × 10^5/well in six-well plates after 24 h recovery treatment with compounds 1, 4, and 7 was performed with the indicated concentrations. After 6 and 24 h, phase-contrast images of the cells were taken with a Zeiss Primovert microscope (20× magnification). To determinate the percentage of vacuolated cells, images (three images each condition) were analyzed by ImageJ, and vacuolated cells were counted.

Data set [9] concerns MES-OV cells. The data set is described as follows: TEM analysis of subcellular morphology. Type of data set: cell-based, human. The conditions noted are these: 24 h treatment. Here is the method: MES-OV Cells were seeded (8 × 10^5 cells/mL) in […] in six-well plates. After 24 h, cells were treated with the selected compounds at the indicated concentration for another 24 h. Afterward, cells were collected, pelleted, and fixed in a solution of 2.5% glutaraldehyde and 2% paraformaldehyde in 0.1 M cacodylate buffer (pH 7.4) for 2 h at room temperature. Samples were subsequently washed 3 × 10 min in cacodylate buffer and postfixed in 1% osmium tetroxide for 1 h. After 3 × 10 min washing in cacodylate buffer, samples were dehydrated in an ethanol series (30–100%, 10 min each) and pure acetone (2 × 10 min) and gradually embedded in Epon 812 resin (Serva). Sections (40–50 nm) were prepared with a Leica UC7 ultramicrotome, mounted on copper mesh grids, and contrasted with 1% uranyl acetate (7 min) and 3% lead citrate (3 min). Imaging was performed with a Tecnai G2 20 transmission electron microscope at 80 kV equipped with an FEI Eagle 4K CCD camera (Center for Anatomy and Cell Biology). Image processing was performed in Fiji[57] using the CLAHE filter (enhance local contrast).

Data set [10] deals with MES-OV cells. Put plainly: Mitochondrial membrane potential by JC-1 stain (flow cytometry). It is filed as cell-based, human. The settings on record: 24 h, 10 μM. On the procedure: as §2
The test system of data set [11] is SK-OV-3 and MES-OV cells. The data set is described as follows: Cell cycle distribution (PI stain, flow cytometry). Type of data set: cell-based, human. The conditions noted are these: 10 μM, 24 h. On the procedure:
as §2

As for `O=S(=O)([O-])C(F)(F)F.[Ag+].c1ccc(-c2ccccn2)nc1.c1ccc(P(c2ccccc2)c2ccccc2)cc1` [Compound 1, [Ag(2,2′-bipy)(PPh3)][CF3SO3]], the “relative resistance (IC50 HCT116 WT/OxR divided by IC50 HCT116 WT)” value in [1] is 0.7^n.s. Further, the “apoptosis induction (AV/PI)” value in data set [2] is reported as “up to 100%”. Further, the “stability in PBS” value in data set [3] was “an equilibrium is established between the parent complex and AgP2 and AgN2 species”. Moreover, the “ROS levels (in words)” value in [4] was “significant and very strong elevation in ROS was found only in the 10 μM sample”. The “TrxR inhibition strength relative to 7” value in data set [5] worked out at 10 fold. Further, in [6], the “relative resistance (IC50 MES-OV/CBP divided by IC50 MES-OV)” value was 1.0^n.s. Moreover, the “relative resistance (IC50 SK-OV-3/CBP divided by IC50 SK-OV-3)” value in data set [7] is recorded as 1.6^n.s. Besides, the “cytoplasmic vacuole formation (phase contrast)” value in data set [8] is “distinctly fewer vesicles of smaller and distinctive shapes”. Also, in data set [9], the “vacuole diameter (TEM)” value was 300–500 nm. Besides, in data set [10], the “cells with mitochondrial depolarization (low Δψ fraction)” value is 50%. Moreover, the “cell cycle distribution change” value in [11] is “significant shift from the G0–G1 phase to the S phase”.

(Values after PMC11056982, “Paraptotic Cell Death as an Unprecedented Mode of Action Observed for New Bipyridine-Silver(I) Compounds Bearing Phosphane Coligands” (Journal of Medicinal Chemistry, 2024).)
